Results as given in ChEMBL document CHEMBL1123891, “Antimalarial activity of 2-(substituted amino)-4,6-bis(trichloromethyl)-1,3,5-triazines and N-(chlorophenyl)-N'-[4-(substituted amino)-6-(trichloromethyl)-1,3,5-triazin-2-yl]guanidines” (1987).
Several values for one entry are separate records, joined by “and”; a condition that tells them apart may be missing. Identical values can stand only once.

Tests used:
Gallus gallus [1] = assay: Mean survival time was determined against Plasmodium gallinaceum treated chicks after (subcutaneously) administration of 100 mg/kg; assay type: functional; conditions: route subcutaneous
Mus musculus [2] = assay: Mean survival time was determined against Plasmodium berghei treated mice (Mus musculus) after (subcutaneous) administration of 640 mg/kg; assay type: functional; design: unit not given beside the values
Mus musculus [3] = species: Mus musculus; assay: Dose required for 90% suppression of the parasitaemia in Plasmodium berghei treated mice (Mus musculus) relative to control was determined; assay type: functional
Mus musculus [4] = assay: (§1) Mean survival time was determined against Plasmodium berghei treated mice (Mus musculus) after (subcutaneously) administration of 40 mg/kg; assay type: functional; conditions: route subcutaneous
Mus musculus [5] = assay: Mean survival time was determined against Plasmodium berghei treated mice (Mus musculus) after (subcutaneously) administration of 160 mg/kg; assay type: functional; design: unit not given beside the values; conditions: route subcutaneous
Mus musculus [6] = assay: (§2) Mean survival time was determined against Plasmodium berghei treated mice (Mus musculus) after (subcutaneously) administration of 20 mg/kg; assay type: functional; design: unit not given beside the values; conditions: route subcutaneous
Mus musculus [7] = assay: Mean survival time was determined against Plasmodium berghei treated mice (Mus musculus) after (subcutaneous) administration of 320 mg/kg; assay type: functional
Gallus gallus [8] = assay: Mean survival time was determined against Plasmodium gallinaceum treated chicks after (subcutaneous) administration of 120 mg/kg; assay type: functional
Mus musculus [9] = assay: (§3) Mean survival time was determined against Plasmodium berghei treated mice (Mus musculus) after (subcutaneously) administration of 80 mg/kg; assay type: functional; design: unit not given beside the values; conditions: route subcutaneous
Mus musculus [10] = assay: as §1; assay type: functional; design: unit not given beside the values; conditions: route subcutaneous
Mus musculus [11] = assay: Mean survival time was determined against Plasmodium berghei treated mice (Mus musculus) after (subcutaneous) administration of 160 mg/kg; assay type: functional; design: unit not given beside the values
Mus musculus [12] = assay: as §2; assay type: functional; conditions: route subcutaneous
Gallus gallus [13] = assay: Mean survival time was determined against Plasmodium gallinaceum treated chicks after (subcutaneously) administration of 60 mg/kg; assay type: functional; conditions: route subcutaneous
Mus musculus [14] = assay: as §3; assay type: functional; conditions: route subcutaneous
Mus musculus [15] = assay: (§4) Mean survival time was determined against Plasmodium berghei treated mice (Mus musculus) after (subcutaneously) administration of 320 mg/kg; assay type: functional; design: unit not given beside the values; conditions: route subcutaneous
Gallus gallus [16] = assay: Mean survival time was determined against Plasmodium gallinaceum treated chicks after (subcutaneously) administration of 120 mg/kg; assay type: functional; conditions: route subcutaneous
Gallus gallus [17] = assay: Mean survival time was determined against Plasmodium gallinaceum treated chicks after (subcutaneously) administration of 240 mg/kg; assay type: functional; conditions: route subcutaneous
Gallus gallus [18] = assay: Mean survival time was determined against Plasmodium gallinaceum treated chicks after (subcutaneous) administration of 240 mg/kg; assay type: functional
Mus musculus [19] = assay: as §4; assay type: functional; conditions: route subcutaneous
Mus musculus [20] = assay: Mean survival time was determined against Plasmodium berghei treated mice (Mus musculus) after (subcutaneously) administration of 640 mg/kg; assay type: functional; conditions: route subcutaneous
Mus musculus [21] = assay: Mean survival time was determined against Plasmodium berghei treated mice (Mus musculus) after (subcutaneous) administration of 20 mg/kg

Compound	SD90 (Mus musculus [3])	Delta MST (Mus musculus [4]; 40 mg/kg)	Delta MST (Mus musculus [5]; 160 mg/kg)	Delta MST (Mus musculus [6])	Delta MST (Mus musculus [2])	Delta MST (Mus musculus [7])	Delta MST (Mus musculus [9])	Delta MST (Mus musculus [10])	Delta MST (Mus musculus [11]; 160 mg/kg)	Delta MST (Mus musculus [12])	Delta MST (Mus musculus [14])	Delta MST (Mus musculus [5])	Delta MST (Mus musculus [15])	Delta MST (Gallus gallus [17])	also measured
CN(C)CCCNc1nc(/N=C(\N)Nc2ccc(Cl)c(Cl)c2)nc(C(Cl)(Cl)Cl)n1	100 mg/kg	1.3 and 1.6	12.3 and 12.6												Delta MST (Gallus gallus [1]): 0.2; Delta MST (Mus musculus [2]; 640 mg/kg): 15.5 and 14.9
N=C(Nc1ccc(Cl)cc1)Nc1nc(NCCCN2CCCCC2)nc(C(Cl)(Cl)Cl)n1	208 mg/kg			0.3	7.9 and 8.1	5.5	2.7	1.7 and 1.5	3.1 and 3.9						Delta MST (Gallus gallus [8]): 9.1
ClC(Cl)(Cl)c1nc(NCCCCCN2CCCC2)nc(C(Cl)(Cl)Cl)n1	34 mg/kg	0.4 and 0.5								0	0.4	2.3	8.6		Delta MST (Gallus gallus [13]): 1.2; Delta MST (Mus musculus [11]): 3; Delta MST (Gallus gallus [16]): 4.6
N=C(Nc1ccc(Cl)cc1)Nc1nc(NCCCCCN2CCCC2)nc(C(Cl)(Cl)Cl)n1	145 mg/kg			0.6	7.2 and 7	4	2.2	1 and 1.2	3.8 and 4.2						Delta MST (Gallus gallus [8]): 0.7
CCN1CCCC(Nc2nc(/N=C(\N)Nc3ccc(Cl)cc3)nc(C(Cl)(Cl)Cl)n2)C1 (configuration not stated)	97 mg/kg	0.7 and 1.1	4.7 and 2.3							0.3	4.1		5.3		Delta MST (Mus musculus [2]; 640 mg/kg): 10.3 and 9.9
CCN1CCCC(Nc2nc(C(Cl)(Cl)Cl)nc(C(Cl)(Cl)Cl)n2)C1 (configuration not stated)	91 mg/kg											2.8		1.6	Delta MST (Mus musculus [4]): 0.2
N=C(Nc1ccc(Cl)cc1)Nc1nc(NCCCN2CCCCCC2)nc(C(Cl)(Cl)Cl)n1	240 mg/kg			0.7	7.5 and 4.7	4.5	1.7	1.1 and 0.7	2.7 and 1.5						Delta MST (Gallus gallus [1]): 18.7; Delta MST (Gallus gallus [18]): 7.2
N=C(Nc1ccc(Cl)cc1)Nc1nc(NCCCCN2CCCC2)nc(C(Cl)(Cl)Cl)n1	108 mg/kg			0.2	5.8 and 5.3	4.8	2.2	0.4 and 1	3.8 and 4.8						
ClC(Cl)(Cl)c1nc(NCCCCN2CCCC2)nc(C(Cl)(Cl)Cl)n1	80 mg/kg	0.2 and 0.3								0.2	0.4	2.8	4.2		Delta MST (Gallus gallus [13]): 0.1; Delta MST (Mus musculus [11]): 2.1
ClC(Cl)(Cl)c1nc(NCCCN2CCCC2)nc(C(Cl)(Cl)Cl)n1	86 mg/kg				3.8					0	0.2	1	1.6	0.3	Delta MST (Mus musculus [4]): 0
N=C(Nc1ccc(Cl)cc1)Nc1nc(NCCCN2CCCC2)nc(C(Cl)(Cl)Cl)n1	235 mg/kg		3.7 and 2.3							0.5	1.9			14.4	Delta MST (Mus musculus [19]): 7.5; Delta MST (Mus musculus [20]): 10.1 and 9.9; Delta MST (Mus musculus [4]): 0.5; Delta MST (Gallus gallus [16]): 11.7
CN(C)CCCNc1nc(/N=C(\N)Nc2ccc(Cl)cc2)nc(C(Cl)(Cl)Cl)n1								4.2 and 4.6	5.4 and 6.5						
CN(C)CCCNc1nc(C(Cl)(Cl)Cl)nc(C(Cl)(Cl)Cl)n1	125 mg/kg	2 and 2.1	4 and 4.7								2.2		6.8	0.3	Delta MST (Mus musculus [2]; 640 mg/kg): 16.3 and 17.7; Delta MST (Mus musculus [21]): 1.2
